Data reported in patent publication US8207172B2 (Bayer Intellectual Property GmbH, priority 2004, dated 2012).

How the values were obtained:
[1] = system: A431 cells (human epidermoid carcinoma); assay: In vitro tumor cell proliferation assay (Cell Titer-Glo luminescent cell viability), A431; assay type: cell-based; details: A-431, 72 h, 72 hours of drug exposure, ATP luminescence readout, read-out: IC50, anti-proliferative activity (inhibition of cell proliferation)
Procedure, shortened: (§1)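 Proliferation inhibition was measured as ATP-dependent luciferase signal after cells in RPMI with 10% FBS received test compound for 72 h at 37° C. Final concentrations spanned […] to 64 pM in 0.1% DMSO; IC50 values were derived.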

[2] = system: BT474 (human breast carcinoma); assay: In vitro tumor cell proliferation assay (Cell Titer-Glo luminescent cell viability), BT474; assay type: cell-based; details: BT-474, 72 h, BT474 cells, 72 hours of drug exposure, ATP luminescence readout, read-out: IC50, anti-proliferative activity (inhibition of cell proliferation)
Procedure, shortened: as §1

SMILES	IC50 [1] [µM]	IC50 [2] [µM]
CN1CCN(CCn2cc3c(n2)CCc2c-3sc3ncnc(Nc4ccc(OCc5cccc(C#N)c5)c(Cl)c4)c23)CC1 [Example 336, 3-{[2-chloro-4-({2-{2-(4-methylpiperazin-1-yl)ethyl]-4,5-dihydro-2H-pyrimido[5′,4′:4,5]thieno[2,3-e]indazol-6-yl}amino)phenoxy]methyl} benzonitrile]	≤ 5	≤ 1
Cc1cccc(COc2ccc(Nc3ncnc4sc5c(c34)CCc3nn(CCO)cc3-5)cc2Cl)n1 [Example 115]	≤ 50	≤ 1
O=C(Cn1cc2c(n1)CCc1c-2sc2ncnc(Nc3ccc(OCc4cccc(F)c4)c(Cl)c3)c12)NCCO [Example 178, 2-[6-({3-chloro-4-[(3-fluorobenzyl)oxy]phenyl}amino)-4,5-dihydro-2H-pyrimido[5′,4′:4,5]thieno[2,3-e]indazol-2-yl]-N-(2-hydroxyethyl)acetamide]	≤ 50	≤ 1
CN(C)c1ccc(NC(=O)Cn2ncc3c2CCc2c-3sc3ncnc(Nc4ccc(OCc5cccc(F)c5)c(Cl)c4)c23)cc1 [Example 192, 2-[6-({3-chloro-4-[(3-fluorobenzyl)oxy]phenyl}amino)-4,5-dihydro-3H-pyrimido[5′,4′:4,5]thieno[2,3-e]indazol-3-yl]-N-[4-(dimethylamino)phenyl]acetamide]	≤ 50	≤ 5
CC(C)(C)OC(=O)N1CCN(CCn2cc3c(n2)CCc2c-3sc3ncnc(Nc4ccc(F)c(Cl)c4)c23)CC1 [Example 27, tert-butyl 4-(2-{6-[(3-chloro-4-fluorophenyl)amino]-4,5-dihydro-2H-pyrimido[5′,4′:4,5]thieno[2,3-e]indazol-2-yl}ethyl)piperazine-1-carboxylate]	≤ 5	≤ 5
Cc1cccc(COc2ccc(Nc3ncnc4sc5c(c34)CCc3nn(CCOS(C)(=O)=O)cc3-5)cc2Cl)n1 [Example 116, 2-[6-({3-chloro-4-[(6-methylpyridin-2-yl)methoxy]phenyl}amino)-4,5-dihydro-2H-pyrimido[5′,4′:4,5]thieno[2,3-e]indazol-2-yl]ethyl methanesulfonate]	≤ 50	≤ 5
COc1ccc(Nc2ncnc3sc4c(c23)CCc2nn(CCN3CCN(C)CC3)cc2-4)cc1Cl [Example 52, N-(3-chloro-4-methoxyphenyl)-2-[2-(4-methylpiperazin-1-yl)ethyl]-4,5-dihydro-2H-pyrimido[5′,4′:4,5]thieno[2,3-e]indazol-6-amine]	≤ 50	≤ 5
CCOC(=O)Cn1ncc2c1CCc1c-2sc2ncnc(Nc3ccc(OCc4cccc(F)c4)c(Cl)c3)c12 [Example 190, ethyl [6-({3-chloro-4-[(3-fluorobenzyl)oxy]phenyl}amino)-4,5-dihydro-3H-pyrimido[5′,4′:4,5]thieno[2,3-e]indazol-3-yl]acetate]	≤ 50	≤ 1
O=C(Cn1cc2c(n1)CCc1c-2sc2ncnc(Nc3ccc(OCc4cccc(F)c4)c(Cl)c3)c12)N1CCOCC1 [Example 179, N-{3-chloro-4-[(3-fluorobenzyl)oxy]phenyl}-2-(2-morpholin-4-yl-2-oxoethyl)-4,5-dihydro-2H-pyrimido[5′,4′:4,5]thieno[2,3-e]indazol-6-amine]	≤ 5	≤ 1
CS(=O)(=O)CCNCCn1ncc2c1CCc1c-2sc2ncnc(Nc3ccc(OCc4ccccn4)c(Cl)c3)c12 [Example 114, N-[3-chloro-4-(pyridin-2-ylmethoxy)phenyl]-3-(2-{[2-(methylsulfonyl)ethyl]amino}ethyl)-4,5-dihydro-3H-pyrimido[5′,4′:4,5]thieno[2,3-e]indazol-6-amine]	≤ 5	≤ 1
CS(=O)(=O)CCNC(=O)Cn1cc2c(n1)CCc1c-2sc2ncnc(Nc3ccc(OCc4cccc(F)c4)c(Cl)c3)c12 [Example 180, 2-[6-({3-chloro-4-[(3-fluorobenzyl)oxy]phenyl}amino)-4,5-dihydro-2H-pyrimido[5′,4′:4,5]thieno[2,3-e]indazol-2-yl]-N-[2-(methylsulfonyl)ethyl]acetamide]	≤ 50	≤ 1
Cc1cccc(COc2ccc(Nc3ncnc4sc5c(c34)CCc3nn(CCN4CCN(C)CC4)cc3-5)cc2Cl)c1 [Example 330, N-{3-chloro-4-[(3-methylbenzyl)oxy]phenyl}-2-[2-(4 methylpiperazin-1-yl)ethyl]-4,5-dihydro-2H-pyrimido[5′,4′:4,5]thieno[2,3-e]indazol-6-amine]	≤ 5	≤ 5
CCCN1CCC(CCn2cc3c(n2)CCc2c-3sc3ncnc(Nc4ccc(OCc5cccc(F)c5)c(Cl)c4)c23)CC1 [Example 253, N-{3-chloro-4-[(3-fluorobenzyl)oxy]phenyl}-2-[2-(1-propylpiperidin-4-yl)ethyl]-4,5-dihydro-2H-pyrimido[5′,4′:4,5]thieno[2,3-e]indazol-6-amine]	≤ 5	≤ 1
COCCN(C)CCn1cc2c(n1)CCc1c-2sc2ncnc(Nc3ccc(OCc4cccc(F)c4)c(Cl)c3)c12 [Example 69, N-{3-chloro-4-[(3-fluorobenzyl)oxy]phenyl}-2-{2-[(2-methoxyethyl)(methyl)amino]ethyl}-4,5-dihydro-2H-pyrimido[5′,4′:4,5]thieno[2,3-e]indazol-6-amine]	≤ 5	≤ 1
OCCN(CCO)CCn1cc2c(n1)CCc1c-2sc2ncnc(Nc3ccc(OCc4cccc(F)c4)c(Cl)c3)c12 [Example 64, 2,2′-({2-[6-({3-chloro-4-[(3-fluorobenzyl)oxy]phenyl}amino)-4,5-dihydro-2H-pyrimido[5′,4′:4,5]thieno[2,3-e]indazol-2-yl]ethyl}imino)diethanol]	≤ 5	≤ 1
Fc1cccc(COc2ccc(Nc3ncnc4sc5c(c34)CCc3c-5cnn3CCNCCN3CCOCC3)cc2Cl)c1 [Example 259, N-{3-chloro-4-[(3-fluorobenzyl)oxy]phenyl}-3-{2-[(2-morpholin-4-ylethyl)amino]ethyl}-4,5-dihydro-3H-pyrimido[5′,4′:4,5]thieno[2,3-e]indazol-6-amine]	≤ 50	≤ 5
CN(C)[C@H]1CCN(CC(=O)N2CCC(n3cc4c(n3)CCc3c-4sc4ncnc(Nc5ccc(OCc6cccc(F)c6)c(Cl)c5)c34)CC2)C1 [Example 223, N-{3-chloro-4-[(3-fluorobenzyl)oxy)phenyl}-2-(1-{[(3S)-3-(dimethylamino)pyrrolidin-1-yl]acetyl}piperidin-4-yl)-4,5-dihydro-2H-pyrimido[5′,4′:4,5]thieno[2,3-e]indazol-6-amine]	≤ 5	≤ 1
COCCN1CCN(CCn2cc3c(n2)CCc2c-3sc3ncnc(Nc4ccc(F)c(Cl)c4)c23)CC1 [Example 25, N-(3-chloro-4-fluorophenyl)-2-{2-[4-(2-methoxyethyl)piperazin-1-yl]ethyl}-4,5-dihydro-2H-pyrimido[5′,4′:4,5]thieno[2,3-e]indazol-6-amine]	≤ 5	≤ 5
OCCn1cc2c(n1)CCc1c-2sc2ncnc(Nc3ccc4c(cnn4Cc4cccc(F)c4)c3)c12 [Example 275, 2-(6-{[1-(3-fluorobenzyl)-1H-indazol-5-yl]amino}-4,5-dihydro-2H-pyrimido[5′,4′:4,5]thieno[2,3-e]indazol-2-yl)ethanol]	≤ 5	≤ 1
